Source: paper PMC7403315, “Cyclic peptide FXII inhibitor provides safe anticoagulation in a thrombosis model and in artificial lungs” (Nature Communications, 2020)
Where “and” joins values, the source holds several entries; their conditions need not be identical. Equal values may be shown once. One block for each molecule: values may come before it. Starred links: 1 amine or outer side, 2 acyl side, 3 side chain; linkers in the order of their positions; H or OH if unused. Positions of bridges follow the written chain, without caps; N, C: chain ends. Non-standard residues stand in square brackets, D forms with d. Residues, ends and D or L forms follow the SMILES beside them. TATA = O=C(CC[*:1])N1CN(C(=O)CC[*:2])CN(C(=O)CC[*:3])C1; Phe(4-F) = N[C@@H](Cc1ccc(F)cc1)C(=O)O; β3hR = N=C(N)NCCC[C@H](N)CC(=O)O

How the values were obtained:
human β-FXIIa = molecular target: T1, human β-FXIIa (Homo sapiens, UniProt P00748); assay: FXIIa protease inhibition assay with fluorogenic substrate Boc-Gln-Gly-Arg-AMC; assay type: biochemical; details: for Ki: purified peptide without coumarin label, read-out: Ki human FXIIa
T1 construct: human β-FXIIa (Molecular Innovations cat #); purchased Molecular Innovations HFXIIAB; host or cells: human blood
T1 sequence (P00748 373-615 limits assumed, other chains not shown): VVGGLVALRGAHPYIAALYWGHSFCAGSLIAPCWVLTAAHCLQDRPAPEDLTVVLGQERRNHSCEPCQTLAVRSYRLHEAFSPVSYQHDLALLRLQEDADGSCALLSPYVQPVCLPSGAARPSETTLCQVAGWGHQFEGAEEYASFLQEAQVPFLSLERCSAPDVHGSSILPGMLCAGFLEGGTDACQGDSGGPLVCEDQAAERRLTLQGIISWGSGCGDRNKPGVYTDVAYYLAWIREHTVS
Method: (§1) In order to test the inhibitory activity of peptides without prior purification, we developed the following method. […] After solid-phase peptide synthesis, cleavage, and ether precipitation, the peptides were chemically cyclized and their Ki values were determined in a FXIIa activity assay using a fluorogenic substrate.
(§2) Protease inhibition assays
(§3) The inhibitory activity of peptides was determined by measuring the residual protease activity with a fluorogenic substrate. The assay was performed in buffer containing 10 mM Tris-Cl, pH […]
(§4) 1% (v/v) DMSO in a volume of 150 µl. FXIIa activity was measured with the fluorogenic substrate Boc-Gln-Gly-Arg-AMC (Bachem) at a final concentration of 50 µM. Mouse α-FXIIa (Molecular Innovations cat # MFXIIA) and human β-FXIIa (Molecular Innovations cat # HFXIIAB) were used at final concentrations of 0.4 nM. The reaction was pipetted as follows: 50 µl of bicyclic peptide in assay buffer were added to 50 µl of FXIIa in assay buffer and incubated for 10 minutes at 25°C before 50 µl of 150 µM fluorogenic substrate in assay buffer were added to measure the residual protease activity with an Infinite M200Pro fluorescence plate reader (excitation at 368 nm, emission at 467 nm; Tecan) for a period of 30 minutes with a read every minute at 25°C. The Tecan software i-control (version 1.1) was used for data analysis. Stock solutions of 1 mM bicyclic peptide were prepared by either dissolving the unpurified cyclization reaction with water or by dissolving purified and lyophilized peptide in water. The bicyclic peptides were serially diluted two-fold using assay buffer. Sigmoidal curves were fitted to the data using the following dose response equation (1), wherein x = peptide concentration, y = % protease activity, and p = Hill slope. IC50 values were derived from the fitted curve.
(§5) The inhibition constants (Ki) were calculated according to the equation of Cheng and Prusoff, Ki = IC50/(1+([S]0/Km), wherein IC50 is the functional strength of the inhibitor, [S]0 is the total substrate concentration, and Km is the Michaelis-Menten constant. […]
(§6) the substrate Boc-Gln-Gly-Arg-AMC. […]

Mouse α-FXIIa = molecular target: T2, Mouse α-FXIIa (Mus musculus, UniProt Q80YC5); assay: as above; assay type: biochemical; details: purified peptide without coumarin label; read-out: Ki mouse FXIIa
T2 construct: Mouse α-FXIIa; purchased Molecular Innovations MFXIIA
T2 sequence (Q80YC5 355-597 limits assumed): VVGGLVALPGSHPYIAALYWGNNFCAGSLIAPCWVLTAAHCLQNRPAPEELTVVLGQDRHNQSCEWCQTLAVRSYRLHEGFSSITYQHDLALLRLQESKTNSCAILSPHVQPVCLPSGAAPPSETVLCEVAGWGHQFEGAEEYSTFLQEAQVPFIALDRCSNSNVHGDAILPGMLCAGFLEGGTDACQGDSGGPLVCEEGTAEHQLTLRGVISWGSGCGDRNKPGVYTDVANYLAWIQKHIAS
T2 sequence (Q80YC5 20-354 limits assumed): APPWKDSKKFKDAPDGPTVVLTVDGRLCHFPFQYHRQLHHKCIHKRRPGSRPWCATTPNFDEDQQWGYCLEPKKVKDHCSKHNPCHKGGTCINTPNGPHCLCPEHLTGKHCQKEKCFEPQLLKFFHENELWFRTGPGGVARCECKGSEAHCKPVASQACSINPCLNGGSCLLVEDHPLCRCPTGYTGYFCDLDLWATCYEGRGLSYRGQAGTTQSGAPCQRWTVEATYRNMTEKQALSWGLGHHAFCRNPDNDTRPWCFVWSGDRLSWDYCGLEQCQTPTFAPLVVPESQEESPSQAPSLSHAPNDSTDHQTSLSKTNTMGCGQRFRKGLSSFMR
Method: as §1, §2, §3, §4, §5, §6

SMILES: CC(C)C[C@@H]1NC(=O)[C@H](CCC(N)=O)NC(=O)[C@H](CCCNC(=N)N)NC(=O)[C@@H]2CSCCC(=O)N3CN(CN(C3)C(=O)CCSC[C@H](NC(=O)[C@@H](CO)NC(=O)[C@H](N)CCCNC(=N)N)C(=O)N[C@@H](Cc3ccc(F)cc3)C(=O)N[C@@H](CCCNC(=N)N)C(=O)N[C@@H](CC(C)C)C(=O)N3CCC[C@H]3C(=O)N2)C(=O)CCSC[C@@H](C(=O)N[C@@H](CCCNC(=N)N)C(N)=O)NC(=O)C[C@H](CCCNC(=N)N)NC1=O [Arg8His reverted] (H-[dR][dS]C[Phe(4-F)]RLPCRQL[β3hR]CR-NH2; linker 3-8-13 via TATA)
- Ki (human β-FXIIa): 0.31 ± 0.02 nM
- Ki (Mouse α-FXIIa): 0.91 ± 0.04 nM

SMILES: CC(C)C[C@@H]1NC(=O)[C@H](CCC(N)=O)NC(=O)[C@H](Cc2c[nH]cn2)NC(=O)[C@@H]2CSCCC(=O)N3CN(CN(C3)C(=O)CCSC[C@H](NC(=O)[C@@H](CO)NC(=O)[C@H](N)CCCNC(=N)N)C(=O)N[C@@H](Cc3ccc(F)cc3)C(=O)N[C@@H](CCCNC(=N)N)C(=O)N[C@@H](CC(C)C)C(=O)N3CCC[C@H]3C(=O)N2)C(=O)CCSC[C@@H](C(=O)N[C@@H](CCCNC(=N)N)C(N)=O)NC(=O)[C@H](CCCNC(=N)N)NC1=O [Arg11βhArg reverted] (HELM PEPTIDE1{[dR].[dS].C.[O=C([C@H](Cc1ccc(F)cc1)N[*:1])[*:2]].R.L.P.C.H.Q.L.R.C.R.[am]}|CHEM1{[O=C(CC[*:1])N1CN(C(=O)CC[*:2])CN(C(=O)CC[*:3])C1]}$PEPTIDE1,CHEM1,3:R3-1:R1|PEPTIDE1,CHEM1,8:R3-1:R2|PEPTIDE1,CHEM1,13:R3-1:R3$$$V2.0)
- Ki (human β-FXIIa): 0.51 ± 0.1 nM
- Ki (Mouse α-FXIIa): 0.9 ± 0.4 nM

SMILES: CC(C)C[C@@H]1NC(=O)[C@H](CCC(N)=O)NC(=O)[C@H](Cc2c[nH]cn2)NC(=O)[C@@H]2CSCCC(=O)N3CN(CN(C3)C(=O)CCSC[C@H](NC(=O)[C@@H](N)CCCNC(=N)N)C(=O)N[C@@H](Cc3ccccc3)C(=O)N[C@@H](CCCNC(=N)N)C(=O)N[C@@H](CC(C)C)C(=O)N3CCC[C@H]3C(=O)N2)C(=O)CCSC[C@@H](C(=O)N[C@@H](CCCNC(=N)N)C(N)=O)NC(=O)[C@H](CCCNC(=N)N)NC1=O [FXII851] (HELM PEPTIDE1{R.C.F.R.L.P.C.H.Q.L.R.C.R.[am]}|CHEM1{[O=C(CC[*:1])N1CN(C(=O)CC[*:2])CN(C(=O)CC[*:3])C1]}$PEPTIDE1,CHEM1,2:R3-1:R1|PEPTIDE1,CHEM1,7:R3-1:R2|PEPTIDE1,CHEM1,12:R3-1:R3$$$V2.0)
- Residual activity of human FXIIa (human β-FXIIa; inhibitor 0.390625 nM, 0.000390625 µM): 96.2983%
- remaining activity at 0.000390625 µM (human β-FXIIa; inhibitor 0.390625 nM, read-out: Residual activity of human FXIIa): 93.8%
- Residual activity of human FXIIa (human β-FXIIa; inhibitor 0.78125 nM, 0.00078125 µM): 91.5155%
- remaining activity at 0.00078125 µM (human β-FXIIa; inhibitor 0.78125 nM, read-out: Residual activity of human FXIIa): 90.5%
- Residual activity of human FXIIa (human β-FXIIa; inhibitor 1.5625 nM, 0.0015625 µM): 83.5319%
- remaining activity at 0.0015625 µM (human β-FXIIa; inhibitor 1.5625 nM, read-out: Residual activity of human FXIIa): 84.1%
- Residual activity of human FXIIa (human β-FXIIa; inhibitor 3.125 nM, 0.003125 µM): 70.2169%
- remaining activity at 0.003125 µM (human β-FXIIa; inhibitor 3.125 nM, read-out: Residual activity of human FXIIa): 72.3%
- Residual activity of human FXIIa (human β-FXIIa; inhibitor 6.25 nM, 0.00625 µM): 54.9417%
- remaining activity at 0.00625 µM (human β-FXIIa; inhibitor 6.25 nM, read-out: Residual activity of human FXIIa): 56.8%
- Residual activity of human FXIIa (human β-FXIIa; inhibitor 12.5 nM, 0.0125 µM): 37.7877%
- remaining activity at 0.0125 µM (human β-FXIIa; inhibitor 12.5 nM, read-out: Residual activity of human FXIIa): 38.2%
- Residual activity of human FXIIa (human β-FXIIa; inhibitor 25 nM, […]): 23.2045%
- remaining activity at […] (human β-FXIIa; inhibitor 25 nM, read-out: Residual activity of human FXIIa): 25%
- Residual activity of human FXIIa (human β-FXIIa; inhibitor 50 nM, 0.05 µM): 12.5321%
- remaining activity at 0.05 µM (human β-FXIIa; inhibitor 50 nM, read-out: Residual activity of human FXIIa): 14.1%
- Residual activity of human FXIIa (human β-FXIIa; inhibitor 100 nM, 0.1 µM): 6.25%
- remaining activity at 0.1 µM (human β-FXIIa; inhibitor 100 nM, read-out: Residual activity of human FXIIa): 6.97%
- Residual activity of human FXIIa (human β-FXIIa; inhibitor 200 nM, 0.2 µM): 1.167% and 2.638%
- Residual activity of human FXIIa (human β-FXIIa; inhibitor 400 nM, 0.4 µM): 1.099%
- remaining activity at 0.4 µM (human β-FXIIa; inhibitor 400 nM, read-out: Residual activity of human FXIIa): 1.94%
- Ki (human β-FXIIa): 6.5 nM
- Ki (Mouse α-FXIIa): 36 nM

Other lines, results leading:

- Ki (human β-FXIIa): 0.34 ± 0.03 nM
- Ki (Mouse α-FXIIa): 0.5 ± 0.15 nM
SMILES: CC(C)C[C@@H]1NC(=O)[C@H](CCC(N)=O)NC(=O)[C@H](Cc2c[nH]cn2)NC(=O)[C@@H]2CSCCC(=O)N3CN(CN(C3)C(=O)CCSC[C@H](NC(=O)[C@@H](CO)NC(=O)[C@H](N)CCCNC(=N)N)C(=O)N[C@@H](Cc3ccc(F)cc3)C(=O)N[C@@H](CCCNC(=N)N)C(=O)N[C@@H](CC(C)C)C(=O)N3CCC[C@H]3C(=O)N2)C(=O)CCSC[C@@H](C(=O)N[C@@H](CCCNC(=N)N)C(N)=O)NC(=O)C[C@H](CCCNC(=N)N)NC1=O [FXII900 (with C-term Arg)] (H-[dR][dS]C[Phe(4-F)]RLPCHQL[β3hR]CR-NH2; linker 3-8-13 via TATA)

- Ki (human β-FXIIa): 0.7 ± 0.06 nM
- Ki (Mouse α-FXIIa): 1.9 ± 0.5 nM
SMILES: CC(C)C[C@@H]1NC(=O)[C@H](CCC(N)=O)NC(=O)[C@H](Cc2c[nH]cn2)NC(=O)[C@@H]2CSCCC(=O)N3CN(CN(C3)C(=O)CCSC[C@H](NC(=O)[C@@H](CO)NC(=O)[C@H](N)CCCNC(=N)N)C(=O)N[C@@H](Cc3ccccc3)C(=O)N[C@@H](CCCNC(=N)N)C(=O)N[C@@H](CC(C)C)C(=O)N3CCC[C@H]3C(=O)N2)C(=O)CCSC[C@@H](C(=O)N[C@@H](CCCNC(=N)N)C(N)=O)NC(=O)C[C@H](CCCNC(=N)N)NC1=O [Phe3Phe4F reverted] (HELM PEPTIDE1{[dR].[dS].C.F.R.L.P.C.H.Q.L.[N=C(N)NCCC[C@@H](CC(=O)[*:2])N[*:1]].C.R.[am]}|CHEM1{[O=C(CC[*:1])N1CN(C(=O)CC[*:2])CN(C(=O)CC[*:3])C1]}$PEPTIDE1,CHEM1,3:R3-1:R1|PEPTIDE1,CHEM1,8:R3-1:R2|PEPTIDE1,CHEM1,13:R3-1:R3$$$V2.0)
